Results on 2 compounds are retold here after patent publication US11931482B2 (priority 2019, dated 2024).

As usually defined, the zone of inhibition is the size of the clear area around the sample on an inoculated plate.

Data set [1] relates to Gram-positive pathogenic bacteria, including Mycobacterium tuberculosis, Bacillus subtilis, Enterococcus faecalis, Enterococcus faecium, Staphylococcus aureus. The following applies: Hassanein et al. 2017; cited from earlier work.
The test system of data set [2] is preformed Staphylococcus aureus biofilms. The note with it: within two hours of exposure; Torres et al. 2016; cited from earlier work.
Data set [3] deals with Staphylococcus aureus strain MRSA USA300. Put plainly: Microdilution assay, minimum inhibitory concentration of non-coating incorporated auranofin. It is filed as cell-based. The note with it: TSBG, ~18 hours. Here is the method:
Auranofin release from PU+auranofin-coated catheters was monitored by incubating each coated catheter in 1.98 mL of tryptic soy broth supplemented with 0.25% glucose (TSBG) at 37° C. with shaking at 110 rpm. […] Heilmann et al., Infect. Immun., 64, 277-82 (1996); Lim et al., J. Bacteriol., 186, 722-729 (2004). Every twenty-four hours, the release solutions were collected and completely replaced with fresh medium. A microdilution assay, as described by Shukla & Shukla, J. Mater. Chem. B, 6, 6444-6458 (2018), was used to determine the amount of auranofin contained in the media release samples by comparing the antibacterial activity to that of known concentrations of non-coating incorporated auranofin. […] Staphylococcus aureus strain MRSA USA300 (10 μL) at a final concentration of 10^5 CFU/mL in the exponential growth phase (as determined by optical density) was added to these wells. […] Subsequently, the optical density (OD) of the samples was read at 600-nm using a Cytation3 microplate reader (BioTek, Winooski, VT, USA). The normalized bacteria density was calculated using Equation (1).
The minimum inhibitory concentration of the auranofin control against USA300 was determined as the concentration range of auranofin needed to observe a statistically significant transition of normalized bacteria density from […]. […]

For data set [4] the following is noted: oral antirheumatic therapy; Egsmose et al. 1995; cited from earlier work.
The subject of the next data set is MRSA USA300. Nature of the data set: Kirby-Bauer assay, inner and outer surfaces of bisected coated catheters. The note with it: Staphylococcus aureus, read-out: average zone of inhibition diameter. It is filed as cell-based. From the text: To evaluate the auranofin release, the inventors used a Kirby Bauer assay to visualize the bacterial inhibition and determine if the catheter released the auranofin into the surrounding media. Coated catheters were split through the circumference of the material to expose both the inner and outer surfaces. […] The inventors then placed these catheter pieces were then placed on a bacteria-seeded agar plate with the respective surfaces face down.
Antibacterial and antibiofilm activity of PU+auranofin catheter coatings was examined against MRSA USA300, a community-associated MRSA strain. Kirby-Bauer and broth bacteria survival assays on the coated catheters and their release solutions were conducted, respectively. For the Kirby-Bauer assay, MRSA USA300 in the exponential growth phase at a concentration of 10^8 CFU/mL was spread on tryptic soy agar plates. PU+auranofin-coated and PU+auranofin-uncoated catheters were cut in half lengthwise using a scalpel. Both the inner and outer surfaces of the catheters were placed in direct contact with the bacteria seeded agar and incubated for twenty-four hours at 37° C. These plates were then photographed using a Canon PowerShot S110 digital camera (Tokyo, Japan).

Structures are written as SMILES. Some results are limits rather than exact numbers.

With `CC(=O)OCC1OC([S-])C(OC(C)=O)C(OC(C)=O)C1OC(C)=O.CCP(CC)CC.[Au+]` (centres unmarked) [auranofin, Gold(+1) cation; 3,4,5-triacetyloxy-6-(acetyloxymethyl) oxane-2-thiolate; triethylphosphanium], in data set [1], the “minimum inhibitory concentration (MIC) against these bacteria” value was at least 0.25 µg/mL. Moreover, in data set [2], the “effect on preformed Staphylococcus aureus biofilms” value is listed as “inhibit preformed Staphylococcus aureus biofilms”. Also, the “minimum inhibitory concentration against USA300” value in data set [3] is 0.063 µg/mL. The “cumulative toxicity during long-term treatments” value in data set [4] is reported as “no cumulative toxicity”.

In the case of `CN[C@H](CC(C)C)C(=O)N[C@H]1C(=O)N[C@@H](CC(N)=O)C(=O)N[C@H]2C(=O)N[C@H]3C(=O)N[C@H](C(=O)N[C@H](C(=O)O)c4cc(O)cc(O)c4-c4cc3ccc4O)[C@H](O)c3ccc(c(Cl)c3)Oc3cc2cc(c3O[C@@H]2O[C@H](CO)[C@@H](O)[C@H](O)[C@H]2O[C@H]2C[C@](C)(N)[C@H](O)[C@H](C)O2)Oc2ccc(cc2Cl)[C@H]1O` [vancomycin], the zone of inhibition at 30 µg/disc in the data set on MRSA USA300 turned out to be 14.8 ± 2 mm.
